Experimental data: patent US20240084258A1, “METHOD FOR PREPARING BROWN ADIPOCYTE” (KYOTO PREFECTURAL PUBLIC UNIVERSITY CORPORATION, priority 2015, published 2024)
Like-named read-outs stand apart in the source and are kept apart here.

Tests used:
[1] = system: human dermal fibroblasts (HDFs); assay: UCP1, CIDEA and KCNK3 gene mRNA by real time RT-PCR (Example 17); assay type: cell-based
Protocol: (Day −1). In the control (Ctrl) group, the culture supernatant of the next day (Day 0) was removed by suction and the cells were cultured in a normal medium up to day 14 while substituting the medium with a fresh one once every other day. In groups other than the control (Ctrl) group, the culture supernatant was removed by suction on day 0, and an adipocyte induction medium added with any of ALK5 inhibitor II (4 μM) and LY2157299 (8 μM) was added at 1 mL/well.
Thereafter, the cells were cultured in an adipocyte induction medium free of any compound of ALK5 inhibitor II and LY215799 during Day 9-Day 14. On day 14, the medium was removed by suction from the wells of all groups, and the cells were washed with PBS(−).

[2] = system: human dermal fibroblasts (HDFs)
Protocol: (§1) Human normal skin-derived fibroblast (human dermal fibroblasts; HDFs) were suspended in a normal medium (10% FBS-added Dulbecco's modified minimum essential medium; DMEM). This was seeded in a 12-well plate at a concentration of 3×10^4 cells/well and culturing was started at 5% CO2/95% humidified air, 37° C. The next day (day 0), the culture supernatant was removed by suction and a normal medium (group 1), an adipocyte induction medium (group 2), or an adipocyte induction medium (groups 3-8) added with ALK5 inhibitor II at concentration of 4 μM was added at 1 mL/well.
Once every 2 days, the medium was substituted by a fresh one. In groups 3-7, the cells were cultured in an adipocyte induction medium added with ALK5 inhibitor II only in the periods of Days 0-2, Days 0-4, Days 0-6, Days 0-8 and Days 0-10, respectively, and thereafter cultured in an adipocyte induction medium without addition of ALK5 inhibitor II. In group 8, the cells were cultured in an adipocyte induction medium added with ALK5 inhibitor II throughout the whole period of Days 0-14.

[3] = system: human dermal fibroblasts (HDFs); remark: listed apart in the source
Protocol: as §1
The adipocyte induction medium is DMEM added with 1 nM T3, 1 μM Rosiglitazone, 0.5 mM isobutylmethylxanthine (IBMX), 0.5 μM dexamethason, 1 μg/mL Insulin and 10% FBS.
Once every 2 days, the medium was substituted by a fresh one. In groups 3-7, the cells were cultured in an adipocyte induction medium added with ALK5 inhibitor II only in the periods of Days 0-2, Days 0-4, Days 0-6, Days 0-8 and Days 0-10, respectively, and thereafter cultured in an adipocyte induction medium without addition of ALK5 inhibitor II. In group 8, the cells were cultured in an adipocyte induction medium added with ALK5 inhibitor II throughout the whole period of Days 0-14. On day 14, the medium was removed from each well by suction, the cells were washed with PBS(−) and total RNA was extracted from the cells by using RNA easy Mini Kit manufactured by Qiagen. cDNA was synthesized from the RNA by using Rever Tra Ace qPCR RT Master Mix. The cDNA was admixed with Real-time PCR Master Mix, primers specific to UCP1 gene or β actin gene and Taqman probe. qRT-PCR was performed using AB7300 Real-time PCR system. The mRNA level of UCP1 gene was quantified as a ratio to β actin gene mRNA and calculated with the value of fibroblast cultured in the normal medium as 1.

[4] = system: human dermal fibroblasts (HDFs); assay: Oil Red O staining (Example 9); assay type: cell-based; settings: D4476 2 μM in addition to Rosiglitazone and T3, day 14, FIG. 9
Protocol: (§2) The next day, the culture supernatant was removed by suction and, as described in the Figure, a normal medium, an adipocyte induction medium, or an adipocyte induction medium added with each low-molecular-weight compound and the like was added at 500 μL/well.
(§3) The adipocyte induction medium is a 10% FBS-added DMEM+MDI medium (10% FBS-added DMEM supplemented with 0.5 mM isobutylmethylxanthine (IBMX), 0.5 μM dexamethason and 1 μg/mL Insulin).
(§4) The concentrations of the additives are as follows: • T3: 1 nM • Rosiglitazone: 1 μM • D4476: 2 μM.
(§5) The culture medium was substituted by a fresh one every 3-4 days and the cells were cultured up to day 14.
The cells were washed 3 times with sterile distilled water, Oil Red O staining solution was added, and the mixture was incubated at room temperature for 15 min. Then the cells were washed with sterile distilled water and photographed at a magnification of 100 with a microscope.

[5] = system: human dermal fibroblasts (HDFs); assay: BODIPY, UCP1 and DAPI co-staining (Example 10); assay type: cell-based; settings: D4476 2 μM in addition to T3 and Rosiglitazone, day 14, FIG. 10A, 10B
Protocol: as §2, §3, §4, §5
The cells were fixed with 4% para-formaldehyde and washed with PBS(−).
Then, the cells were reacted in BODIPY 493/503 (Invitrogen)/PBS solution at room temperature for 5 min, washed 3 times with PBS and stained with DAPI. The cells were photographed at a magnification of 200 with a fluorescence microscope.

[6] = system: human dermal fibroblasts (HDFs); assay: UCP1 gene mRNA by real time RT-PCR (Example 2); assay type: cell-based; settings: induction medium + T3 + Rosiglitazone, D4476 2 μM, FSK 2 μM, PD0325901 1 μM, SB431542 2 μM, day 14, FIG. 2
Protocol: This was seeded in a 24-well plate at a concentration of 1×10^4 cells/well (day 0), and culturing was started at 5% CO2/95% humid air, 37° C. The next day, the culture supernatant was removed by suction and, as described in the Figure, a normal medium, an adipocyte induction medium, or an adipocyte induction medium added with each low-molecular compound and the like was added at 500 μL/well. […] The concentrations of the additives are as follows: • T3: 1 nM • Rosiglitazone: 1 μM • D4476: 2 μM • Pifithrin alpha [p53 inhibitor]: 5 μM • Forskolin (FSK): 2 μM • PD0325901: 1 μM • SB431542: 2 μM. The culture medium was substituted by a fresh one every 3-4 days and the cells were cultured up to day 14.

[7] = ALK5 inhibitor II 4 μM or LY2157299 8 μM up to Day 9, day 14, FIG. 17

| SMILES | CIDEA gene expression [1, 7] | KCNK3 gene expression [1, 7] | UCP1 gene expression [1, 7] | strength of induction of UCP1 gene expression, compared with LY2157299 ([1]; ALK5 inhibitor II 4 μM versus LY2157299 8 μM, day 14) | staining intensity of UCP1 protein and staining positive cells ([2]; #6: ALK5 inhibitor II 4 μM for days 0-8, then 6 days without it) | UCP1 protein expression by immunostaining (conversion to brown adipocytes) ([2]; HDFs, ALK5 inhibitor II 4 μM in adipocyte induction medium, day 14, FIG. 14A, 14B) | UCP1 protein expression ([2]; other conditions cultured in the presence of ALK5 inhibitor II (in FIG. #2-5, 7, 8)) | UCP1 gene expression (conversion to brown adipocytes) ([3]; HDFs, ALK5 inhibitor II 4 μM in adipocyte induction medium, day 14, FIG. 13) | UCP1 gene expression ([3]; group 6: ALK5 inhibitor II 4 μM for days 0-8, then 6 days without it) | UCP1 gene expression ([3]; groups 3-5, 7, 8: ALK5 inhibitor II 4 μM for Days 0-2, 0-4, 0-6, 0-10 or 0-14) | Oil Red O staining [4] | lipid droplets stained with Bodipy and UCP1 protein [5] | mRNA expression of UCP1 gene (conversion to brown adipocytes) [6] |
| --- | --- | --- | --- | --- | --- | --- | --- | --- | --- | --- | --- | --- | --- |
| Cc1cccc(-c2n[nH]cc2-c2ccc3ncccc3n2)n1 [ALK5 Inhibitor II, 2-(3-(6-Methylpyridin-2-yl)-1H-pyrazol-4-yl)-1,5-naphthyridine] | induced into brown adipocytes expressing UCP1 gene, CIDEA gene and KCNK3 gene | induced into brown adipocytes expressing UCP1 gene, CIDEA gene and KCNK3 gene | induced into brown adipocytes expressing UCP1 gene, CIDEA gene and KCNK3 gene | more strongly induced | the staining intensity of UCP1 protein was high and many staining positive cells were present | converted to brown adipocytes highly expressing UCP1 protein | High expression of UCP1 protein was also detected | converted to brown adipocytes strongly expressing UCP1 gene | the highest expression of UCP1 gene was induced | High expression of UCP1 gene was also induced |  |  |  |
| NC(=O)c1ccc(-c2nc(-c3ccc4c(c3)OCCO4)c(-c3ccccn3)[nH]2)cc1 [D4476, 4-[4-(2,3-dihydro-1,4-benzodioxin-6-yl)-5-(2-pyridlnyl-)1H-imidazol-2-yl]-benzamide] |  |  |  |  |  |  |  |  |  |  | remarkable Oil Red O staining as compared to the control | converted to brown adipocytes expressing lipid droplets stained with Bodipy and UCP1 protein | induced to brown adipocytes that express mRNA of UCP1 gene |
